Where a name gives a salt, the structure may show the parent alone. Read-outs that look alike come from different tables or passages of the source.
Tests used:
[1] = tested on: U-937 human histocytic lymphoma; experiment: In vitro inhibition rate to tumor cells (MTT), U-937; format: cell-based; details: for inhibition rate, Results (%) U-937: 50 μg/ml; for inhibition at 50 µg/mL: Homo sapiens, U-937, 50 μg/ml, read-out: inhibition rate, Results (%) U-937
[2] = tested on: A-549 human lung adenocarcinoma; experiment: In vitro inhibition rate to tumor cells (MTT), A-549; format: cell-based; details: for inhibition rate, Results (%) A-549: 50 μg/ml; for inhibition at 50 µg/mL: Homo sapiens, A549, 50 μg/ml, read-out: inhibition rate, Results (%) A-549
[3] = tested on: Bel-7402 human hepatic carcinoma; experiment: In vitro inhibition rate to tumor cells (MTT), Bel-7402; format: cell-based; details: for inhibition rate, Results (%) Bel-7402: 50 μg/ml; for inhibition at 50 µg/mL: Homo sapiens, Bel-7402, 50 μg/ml, read-out: inhibition rate, Results (%) Bel-7402
[4] = tested on: MCF-7 human mammary adenocarcinoma; experiment: In vitro inhibition rate to tumor cells (MTT), MCF-7; format: cell-based; details: for inhibition rate, Results (%) MCF-7: 50 μg/ml; for inhibition at 50 µg/mL: Homo sapiens, MCF7, 50 μg/ml, read-out: inhibition rate, Results (%) MCF-7
[5] = tested on: SMMC-7721 human hepatic carcinoma; experiment: In vitro inhibition rate to tumor cells (MTT), SMMC-7721; format: cell-based; details: for inhibition rate, Results (%) SMMC-7721: 50 μg/ml; for inhibition at 50 µg/mL: Homo sapiens, SMMC-7721, 50 μg/ml, read-out: inhibition rate, Results (%) SMMC-7721
[6] = tested on: HL-60 human promyelocytic leukemia; experiment: In vitro inhibition rate to tumor cells (MTT), HL-60; format: cell-based; details: for inhibition rate, Results (%) HL-60: 50 μg/ml; for inhibition at 50 µg/mL: Homo sapiens, HL-60, 50 μg/ml, read-out: inhibition rate, Results (%) HL-60
[7] = tested on: Hela human cervical carcinoma; experiment: In vitro inhibition rate to tumor cells (MTT), Hela; format: cell-based; details: 50 μg/ml; for inhibition at 50 µg/mL: Homo sapiens, HeLa, read-out: inhibition rate, Results (%) Hela
[8] = tested on: LLC mouse Lewis lung carcinoma; experiment: In vitro inhibition rate to tumor cells (MTT), LLC; format: cell-based; details: 50 μg/ml; for inhibition at 50 µg/mL: Mus musculus, Lewis lung carcinoma
Hepatitis B virus (HBV) = format: cell-based; details: for (Value of the positive control - Measured Value) Value of the positive control × 100% / OD450 of HBeAg: 200 μg/ml; for (Value of the positive control - Measured Value) Value of the positive control × 100%: decrease of HBeAg relative to positive control; for OD450 of HBeAg: supernatant four days after infection, positive control 1.917, negative 0.057
HepG2 cells = experiment: Cell status of HepG2 cells treated with sample (HBV screening); format: cell-based; details: 200 μg/ml, HepG2, four days after infection
[9] = target: T1, HIV-1 proteinase (HIV-1 PR) (Human immunodeficiency virus type 1 group M subtype B, UniProt P04585); experiment: Screening for in vitro activity against HIV-1 proteinase; format: biochemical; details: for inhibition at 0.08 µg/mL: 0.08 μg/ml; for inhibition at 0.08 µg/mL / inhibition at 0.4 µg/mL / inhibition at 2 µg/mL / inhibition at 10 µg/mL: read-out: Inhibition rate; for inhibition at 0.4 µg/mL: 0.40 μg/ml; for inhibition at 2 µg/mL: 2.0 μg/ml; for inhibition at 10 µg/mL: 10 μg/ml; for IC50: IC50, five 5× serial dilutions from 50 μg/ml; for inhibition at 50 µg/mL: read-out: Inhibition rate, 50 μg/ml
T1 construct: HIV-1 proteinase digests the fluorescent-labeled substrate; purchased
Experimental: Principle of the test: HIV-1 proteinase digests the fluorescent-labeled substrate in an optimal reaction condition and system. The activity of the enzyme can be reflected by the fluorescent intensity in the product of the enzyme reaction. Adding a sample into the reaction system can be used for screening the inhibitor of the enzyme.
1. HIV-1 PR: commercially available, stored at −85° C.
2. Treatment of the samples: Before use, sample was dissolved in DMSO at a suitable concentration, then serially diluted (5×) with double distilled water, five serial dilutions per sample.
3. Positive control: indinavir, purchased from […].
4. Methods: The diluted sample was added into the reaction buffer containing the fluorescent-labeled substrate. Then the genetic engineered target enzyme was added, and incubated in the optimal reaction condition. The fluorescent value was measured with a FLUO star Galaxy luminoscope.

[10] = target: T2, HIV-1 reverse transcriptase (Human immunodeficiency virus type 1 group M subtype B, UniProt P04585); experiment: Screening for the in vitro activity against the HIV-1 reverse transcriptase; format: biochemical; details: IC50, initial concentration 200 μg/ml
T2 construct: purchased
Experimental: Principle of the test: The template to which the HIV-1 reverse transcriptase interacts was covered onto the enzyme-lined template. In the optimal reaction conditions and system, HIV-1 RT will put the substrate comprising Biotin-dUTP onto the reaction template. The activity of the enzyme was measured as the amount of the integrating Biotin-dUTP in the reaction by using streptavidin-labeled horseradish peroxidase. Adding the sample to the reaction system can identify inhibitor of the enzyme.
1. HIV-1 RT: commercially available.
2. Treatment of the samples: Before use, the sample was dissolved in DMSO at a suitable concentration, then serially diluted (5×) with double distilled water, five serial dilutions per sample.
4. Methods: The diluted sample was added into the reaction buffer containing Biotin-dUTP and the genetic engineered target enzyme, and incubated in the optimal reaction conditions. A streptavidin-labeled horseradish peroxidase was added to visual the system, and OD450 was measured.

[11] = target: T3, HIV-1 integrase (HIV-1 IN) (Human immunodeficiency virus type 1 group M subtype B, UniProt P04585); experiment: Screening for the activity against HIV-1 integrase; format: biochemical; details: initial concentration 100 μg/ml; read-out: IC50
T3 construct: a purified HIV-1 integrase was added into each well; purchased
Experimental: Principle of the test: A synthetic oligonucleotide of 30 nt was used as the donor substrate. A synthetic oligonucleotide of 20 nt was used as the target substrate. A 96-well plate was covered by the donor substrate, and a purified HIV-1 integrase was added into each well. ELISA was performed to measure the product of the target DNA chain transfer. A biotin-labeled alkali phosphatase was used to visual the system. OD value was measured by an Enzyme-linked Detector. Add a sample into the reaction system for screening the inhibitor of the enzyme.
1. HIV-1 IN: commercially available.
2. Treatment of the samples: Before use, the sample was dissolved in water or DMSO at a suitable concentration, then serially diluted (5×), four serial dilutions per sample. The stock solutions of two samples were 100-fold diluted with DMSO, then 5-fold diluted, four serial dilutions per sample. Positive control: S-y, provided by Shanghai Organic Chemistry Institute.
3. The donor substrate and target substrate: synthesized by Shanghai Biological Engineering Company (Shanghai Shenggong).
4. Methods: The diluted sample was added into a 96-well plate covered by the donor substrate, and then added into the reaction buffer containing the genetic engineered target enzyme and biotin-target substrate, incubated in the optimal reaction conditions. A biotin-labeled alkali phosphatase was used to visual the system to determine the absorbance at 450 nm (OD450).

293 cells = experiment: Cell status of 293 cells treated with sample alone (herpes virus screening); details: 50 μg/ml; 293 cells without virus; 12 hrs
[12] = Table 2 (repeated screening), hydrochloride

CC(C)C1CC23OC1(O)C/C(=C\NC(C)(C)C)C2CCC3C (stereo not shown) [Compound 16, Curcumol t-butyl amine hydrochloride]
inhibition rate, Results (%) U-937 ([1]; Table 1, hydrochloride): 82.56% | inhibition rate, Results (%) U-937 [1, 12]: 80.12% | inhibition rate, Results (%) A-549 ([2]; Table 1, hydrochloride): 6.01% | inhibition rate, Results (%) A-549 [2, 12]: 10.19% | inhibition rate, Results (%) Bel-7402 ([3]; Table 1, hydrochloride): 1.23% | inhibition rate, Results (%) Bel-7402 [3, 12]: 8.99% | inhibition rate, Results (%) MCF-7 ([4]; Table 1, hydrochloride): 54.89% | inhibition rate, Results (%) MCF-7 [4, 12]: 50.32% | inhibition rate, Results (%) SMMC-7721 ([5]; Table 1): −2.50% | inhibition rate, Results (%) SMMC-7721 [5, 12]: 2.63% | inhibition rate, Results (%) HL-60 ([6]; Table 1, hydrochloride): 2.31% | inhibition rate, Results (%) HL-60 [6, 12]: 15.00% | inhibition rate, Results (%) Hela ([7]; Table 1, hydrochloride): 68.99% | inhibition rate, Results (%) Hela [7, 12]: 70.32% | inhibition rate, Results (%) LLC ([8]; Table 1, hydrochloride): 1.13% | inhibition rate, Results (%) LLC [8, 12]: 0.22% | (Value of the positive control - Measured Value) Value of the positive control × 100% (Hepatitis B virus (HBV)): 73.81% | OD450 of HBeAg (Hepatitis B virus (HBV)): 0.502 | activity against HBV (in words) (Hepatitis B virus (HBV); primary screening, HBV e antigen, HepG2, 13 samples): had the activity against HBV | Cell status (HepG2 cells): Normal

CC(C)C1CC23OC1(O)CC(C)C2CCC3C (stereo not shown) [Compound 33, hydrogenated curcumol derivative]
inhibition at 50 µg/mL ([1]; Table 1): 44.3% | inhibition at 50 µg/mL ([1]; Table 2 (repeated screening)): 43.2% | inhibition at 50 µg/mL ([2]; Table 1): 16.3% | inhibition at 50 µg/mL ([2]; Table 2 (repeated screening)): 14.3% | inhibition at 50 µg/mL ([3]; Table 1): 14.3% | inhibition at 50 µg/mL ([3]; Table 2 (repeated screening)): 14.9% | inhibition at 50 µg/mL ([4]; Table 1): 45.3% | inhibition at 50 µg/mL ([4]; Table 2 (repeated screening)): 39.3% | inhibition at 50 µg/mL ([5]; Table 1): -7.44% | inhibition at 50 µg/mL ([5]; Table 2 (repeated screening)): -1.56% | inhibition at 50 µg/mL ([6]; Table 1): 1.32% | inhibition at 50 µg/mL ([6]; Table 2 (repeated screening)): 7.68% | inhibition at 50 µg/mL ([7]; Table 1): 60.9% | inhibition at 50 µg/mL ([7]; Table 2 (repeated screening)): 59.8% | inhibition at 50 µg/mL ([8]; Table 1): 4.18% | inhibition at 50 µg/mL ([8]; Table 2 (repeated screening)): 3.12% | inhibition at 0.08 µg/mL [9]: 13.2% | inhibition at 0.4 µg/mL [9]: 11.4% | inhibition at 2 µg/mL [9]: 10.6% | inhibition at 10 µg/mL [9]: 1.3% | IC50 [9]: > 210 µM | inhibition at 50 µg/mL [9]: 9.14% | IC50 [10]: > 839 µM | inhibition at 100 µg/mL [11]: < 50% | (Value of the positive control - Measured Value) Value of the positive control × 100% (Hepatitis B virus (HBV)): 96.45% | OD450 of HBeAg (Hepatitis B virus (HBV)): 0.068 | Cell status (HepG2 cells): Poor

CC(C)C1CC23OC1(O)CC(C)(N1CCNCC1)C2CCC3C (stereo not shown) [Compound 43, Curcumol piperazine without double bond]
inhibition rate, Results (%) U-937 ([1]; Table 1): 16.32% | inhibition rate, Results (%) U-937 ([1]; Table 2 (repeated screening)): 12.30% | inhibition rate, Results (%) A-549 ([2]; Table 1): 13.39% | inhibition rate, Results (%) A-549 ([2]; Table 2 (repeated screening)): 11.24% | inhibition rate, Results (%) Bel-7402 ([3]; Table 1): 9.15% | inhibition rate, Results (%) Bel-7402 ([3]; Table 2 (repeated screening)): −4.98% | inhibition rate, Results (%) MCF-7 ([4]; Table 1): 43.21% | inhibition rate, Results (%) MCF-7 ([4]; Table 2 (repeated screening)): 41.94% | inhibition rate, Results (%) SMMC-7721 ([5]; Table 1): −10.12% | inhibition rate, Results (%) SMMC-7721 ([5]; Table 2 (repeated screening)): −8.98% | inhibition rate, Results (%) HL-60 ([6]; Table 1): 2.56% | inhibition rate, Results (%) HL-60 ([6]; Table 2 (repeated screening)): 2.00% | inhibition rate, Results (%) Hela ([7]; Table 1): 62.13% | inhibition rate, Results (%) Hela ([7]; Table 2 (repeated screening)): 59.66% | inhibition rate, Results (%) LLC ([8]; Table 1): −2.06% | inhibition rate, Results (%) LLC ([8]; Table 2 (repeated screening)): −11.23% | Cytopathy and cell status, Sample (293 cells): Good

CC(C)C1CC23OC1(O)CC1(CO1)C2CCC3C (stereo not shown) [Compound 47, Curcumol epoxy compound]
inhibition at 50 µg/mL ([1]; Table 1): 86.5% | inhibition at 50 µg/mL ([1]; Table 2 (repeated screening)): 85.4% | inhibition at 50 µg/mL ([2]; Table 1): -12% | inhibition at 50 µg/mL ([2]; Table 2 (repeated screening)): -7.85% | inhibition at 50 µg/mL ([3]; Table 1): 2.88% | inhibition at 50 µg/mL ([3]; Table 2 (repeated screening)): 2.35% | inhibition at 50 µg/mL ([4]; Table 1): 65.1% | inhibition at 50 µg/mL ([4]; Table 2 (repeated screening)): 60.5% | inhibition at 50 µg/mL ([5]; Table 1): -1.43% | inhibition at 50 µg/mL ([5]; Table 2 (repeated screening)): -3.25% | inhibition at 50 µg/mL ([6]; Table 1): 10.3% | inhibition at 50 µg/mL ([6]; Table 2 (repeated screening)): 1.96% | inhibition at 50 µg/mL ([7]; Table 1): 83.7% | inhibition at 50 µg/mL ([7]; Table 2 (repeated screening)): 80.8% | inhibition at 50 µg/mL ([8]; Table 1): -13.2% | inhibition at 50 µg/mL ([8]; Table 2 (repeated screening)): -14% | inhibition at 0.08 µg/mL [9]: 6.89% | inhibition at 0.4 µg/mL [9]: 12.3% | inhibition at 2 µg/mL [9]: 12.9% | inhibition at 10 µg/mL [9]: 1.78% | IC50 [9]: > 198 µM | inhibition at 50 µg/mL [9]: 0.56% | IC50 [10]: > 793 µM | inhibition at 100 µg/mL [11]: < 50% | (Value of the positive control - Measured Value) Value of the positive control × 100% (Hepatitis B virus (HBV)): 80.96% | OD450 of HBeAg (Hepatitis B virus (HBV)): 0.365 | Cell status (HepG2 cells): Poor

Reference: patent US7700584B2 (Hangzhou Minsheng Pharmaceuticals Co., Ltd., priority 2004, dated 2010)
